# Data taken from patent publication US9314474B2, “Formulations of 14-epi-analogues of vitamin D” (HYBRIGENICS, SA, priority 2010, dated 2016).
# Read-outs that look alike come from different tables or passages of the source.
# Tests used:
# [1] = humans, previously determined; cited from earlier work
# [2] = human volunteers, cited from earlier work
# [3] = Maximal tolerated dose in humans; format: in vivo, human; details: oral
# [4] = in vivo
# Text: Inecalcitol is a synthetic derivative of calcitriol, the natural active metabolite of vitamin D3.
# [5] = in vivo; cited from earlier work
# [6] = rats; cited from earlier work
# [7] = in vivo; cited from earlier work; remark: listed apart in the source
# [8] = cynomolgus monkey, in vivo, po
# Description: Male cynomolgus monkey received a single oral administration of a high dose of inecalcitol (2 mg/kg) in the same volume (5 ml/kg) for each excipient. Blood samples were drawn at the time of administration (To) and 15, 30, 45, 60, 90 minutes, 3, 6, 9 and 24 hours later. Plasma aliquots were prepared on heparinized tubes and unchanged inecalcitol was specifically assayed by HPLC/MS/MS method.
molecule,measurement,setting,value
"C=C1/C(=C\C=C2/CCC[C@]3(C)[C@@H]([C@H](C)CCCC(C)(C)O)CC[C@@H]23)C[C@@H](O)C[C@@H]1O [calcitriol, 1,25-dihydroxy-cholecalciferol]",maximal tolerated dose,[1],45 μg once a week
C=C1CC[C@H](O)C/C1=C/C=C1\CCC[C@]2(C)[C@@H]([C@H](C)CCCC(C)C)CC[C@@H]12 [cholecalciferol],bioavailability from arachis oil capsules versus MCT capsules,[2]; fasting state,about twice higher
same,bioavailability from arachis oil capsules versus MCT capsules,[2]; given with a standard meal,no difference was observed
"C[C@H](CC#CC(C)(C)O)[C@H]1CC[C@@H]2/C(=C/C=C3C[C@@H](O)C[C@H](O)C3)CCC[C@@]21C [inecalcitol, 19-nor-9,10-seco-14βH-cholesta-5(Z),7(E)-dien-23-ino-1α,3β,25-triol-23-yne]",maximal tolerated dose,[3],4 mg per day
same,calcemic activity,[4],very low calcemic activity
same,calcemic effects compared with calcitriol,[5],markedly lower calcemic effects
C=C1/C(=C\C=C2/CCC[C@]3(C)[C@@H]([C@H](C)/C=C/C=C/C(O)(CC)CC)CC[C@@H]23)C[C@@H](O)C[C@@H]1O [seocalcitol],"bioavailability, LCT- versus MCT-based formulations",[6],no difference was observed
same,bioavailability of complex system versus simple solutions in MCT or LCT,[7],without any improvement in bioavailability
Sunflower oil,absorption of inecalcitol compared with MCT (in words),[8],better absorbed
same,AUC0-24 h (%),[8]; 2 mg/kg,132%
same,Cmax (−fold),[8]; 2 mg/kg,3.0 fold
same,Tmax,[8]; 2 mg/kg,1.5 h
elocalcitol,maximal tolerated dose,[1],150 μg per day
